These results are taken from US10188634B2, “3-(3H-imidazo[4,5-C]pyridin-2-yl)-1 H-pyrazolo[4,3-B]pyridines and therapeutic uses thereof” (Samumed, LLC, priority 2015, dated 2019).

Structures are written as SMILES.

By inhibition is commonly meant how much of the control response was suppressed. In general, EC50 refers to the concentration at which the effect is half-maximal. A higher EC50 goes with a less potent agent.

Common to all, as to assay type: cell-based
Assay [1] deals with Wnt activity (Sp5-Luc reporter, human Sp5 promoter with eight TCF/LEF binding sites) in SW480 colon carcinoma cells. Put plainly: Screening assay for Wnt activity: Sp5-Luc reporter gene assay in SW480 cells. The note with it: for inhibition at 10 µM: read-out: percent inhibition at 10 μM (given for EC50 of >10 μM); for EC50: 10-point dose-response starting from 10 μM, overnight incubation. Summed up: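 Luminescence (BrightGlo) read after overnight 37 °C exposure of Sp5-Luc SW480 reporter cells, 4,000/well in 1% FBS, to compound dosed 1:3 over 10 points from 10 μM with 0.1% DMSO. Values normalized to DMSO-only cells, fitted with variable-slope four-parameter model; where EC50 exceeds 10 μM, % inhibition at 10 μM reported.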

In the next assay the test system is SW480 colon cancer cells. Nature of the assay: Cell viability assay (CellTiter-Blue) in SW480 colon cancer cells. The note with it: Homo sapiens, 96 h; for inhibition at 10 µM: four days, CellTiter-Blue, read-out: percent inhibition at 10 μM (given for EC50 of >10 μM); for EC50: four days incubation, CellTiter-Blue cell viability. Summed up: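 Four-day exposure of SW480 cells (~2×10^3/well) to compound from 10 μM down to 0.004 μM in 1:3 steps, in duplicate. Resorufin fluorescence from CellTiter-Blue after ~3 h served as the viability read-out. EC50 values came from nonlinear curve fits, with % inhibition at 10 μM given where EC50 >10 μM.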

The subject of a further assay is IL-6 in THP-1 cells. Put plainly: Inhibition of IL-6 in LPS-stimulated THP-1 human monocyte cells (HTRF). As to conditions: IL-6 HTRF; for EC50: 500 ng/mL LPS, 22 hours; for inhibition at 10 µM: LPS, read-out: percent inhibition in brackets (given for EC50 >10 μM). In short, it runs like this: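 IL-6 was quantified by HTRF ratio after LPS (500 ng/mL, 22 h) stimulation of THP-1 monocytes pretreated 2 h with compound, 10-point 1:3 dilutions from 10 μM, 0.1% DMSO. Cells were held in 1% FBS for 24 h beforehand. Values normalised to DMSO; four-parameter EC50, or % inhibition at 10 μM above that.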
On the technique in general: In TR-FRET formats the signal depends on donor and acceptor labels being close together.

For the compound `CN1CCN(c2cncc3[nH]c(-c4n[nH]c5ccc(-c6cnccn6)nc45)nc23)CC1` [Compound 620, 3-(7-(4-Methylpiperazin-1-yl)-3H-imidazo[4,5-c]pyridin-2-yl)-5-(pyrazin-2-yl)-1H-pyrazolo[4,3-b]pyridine], the inhibition at 10 µM in assay [1] was determined as 5.8%; in the assay with SW480 colon cancer cells, 48.8%; with IL-6 in THP-1 cells, 30.6%. Also, the EC50 (in assay [1]; with SW480 colon cancer cells; with IL-6 in THP-1 cells) was above 10 µM in each case.
For the compound `Fc1cccc(-c2cncc3[nH]c(-c4n[nH]c5ccc(-c6cncc(CN7CCC(F)(F)C7)c6)nc45)nc23)c1` [Compound 26, 5-(5-((3,3-Difluoropyrrolidin-1-yl)methyl)pyridin-3-yl)-3-(7-(3-fluorophenyl)-3H-imidazo[4,5-c]pyridin-2-yl)-1H-pyrazolo[4,3-b]pyridine], the EC50 is 1.09 µM in assay [1], 0.98 µM with SW480 colon cancer cells and above 10 µM in the assay with IL-6 in THP-1 cells. The inhibition at 10 µM in the assay on IL-6 in THP-1 cells came to 21%.
For the compound `CC(C)Nc1cncc(-c2ccc3[nH]nc(-c4nc5c(-c6cccnc6)cncc5[nH]4)c3n2)c1` [Compound 96, N-Isopropyl-5-(3-(7-(pyridin-3-yl)-3H-imidazo[4,5-c]pyridin-2-yl)-1H-pyrazolo[4,3-b]pyridin-5-yl)pyridin-3-amine], the EC50 was 1.35 µM in assay [1], 6.19 µM in the assay on SW480 colon cancer cells and 1.75 µM in the assay with IL-6 in THP-1 cells.
Take `CC(C)Nc1cncc(-c2ccc3[nH]nc(-c4nc5c(-c6ccoc6)cncc5[nH]4)c3n2)c1` [Compound 292, 5-(3-(7-(Furan-3-yl)-3H-imidazo[4,5-c]pyridin-2-yl)-1H-pyrazolo[4,3-b]pyridin-5-yl)-N-isopropylpyridin-3-amine]: the figures for the EC50 (in assay [1]; in the assay with SW480 colon cancer cells; in the assay with IL-6 in THP-1 cells) were 0.597 µM, 0.646 µM and 2.56 µM, respectively.
For the compound `O=C(Nc1cncc(-c2ccc3[nH]nc(-c4nc5c(-c6cccc(F)c6)cncc5[nH]4)c3n2)c1)C1CC1` [Compound 20, N-(5-(3-(7-(3-Fluorophenyl)-3H-imidazo[4,5-c]pyridin-2-yl)-1H-pyrazolo[4,3-b]pyridin-5-yl)pyridin-3-yl)cyclopropanecarboxamide], the results for the inhibition at 10 µM (in assay [1]; with SW480 colon cancer cells; in the assay with IL-6 in THP-1 cells) were 7%, 5.1% and 19.6%, respectively. Besides, the concentration giving a half-maximal response (EC50) (in assay [1]; in the assay on SW480 colon cancer cells; with IL-6 in THP-1 cells) was above 10 µM each time.
Regarding `CN(C)CCOc1cncc(-c2ccc3[nH]nc(-c4nc5c(-c6cccc(F)c6)cncc5[nH]4)c3n2)c1` [Compound 487, 2-((5-(3-(7-(3-Fluorophenyl)-3H-imidazo[4,5-c]pyridin-2-yl)-1H-pyrazolo[4,3-b]pyridin-5-yl)pyridin-3-yl)oxy)-N,N-dimethylethan-1-amine], the results for the EC50 (in assay [1]; with SW480 colon cancer cells; with IL-6 in THP-1 cells) were 3.44 µM, 5.54 µM and above 10 µM, respectively. Besides, the inhibition at 10 µM with IL-6 in THP-1 cells came out at 33.4%.
Taken in the same sequence, the figures for `Fc1ccccc1-c1cncc2[nH]c(-c3n[nH]c4ccc(-c5ccccn5)nc34)nc12` [Compound 84, 3-(7-(2-Fluorophenyl)-3H-imidazo[4,5-c]pyridin-2-yl)-5-(pyridin-2-yl)-1H-pyrazolo[4,3-b]pyridine] were 0.644 µM, 0.362 µM, above 10 µM and 46.8%.
`Cc1ccncc1-c1ccc2[nH]nc(-c3nc4c(-c5cc(F)cc(CNS(C)(=O)=O)c5)cncc4[nH]3)c2n1` [Compound 453, N-(3-Fluoro-5-(2-(5-(4-methylpyridin-3-yl)-1H-pyrazolo[4,3-b]pyridin-3-yl)-3H-imidazo[4,5-c]pyridin-7-yl)benzyl)methanesulfonamide]: the EC50 is 3.21 µM in assay [1], above 10 µM in the assay with SW480 colon cancer cells and above 10 µM in the assay on IL-6 in THP-1 cells. Besides, the inhibition at 10 µM worked out at 37.3% in the assay on SW480 colon cancer cells and 23.9% in the assay on IL-6 in THP-1 cells.
Turning to `Fc1ccc(-c2cncc3[nH]c(-c4n[nH]c5ccc(-c6cncc(CN7CCCC7)c6)nc45)nc23)cc1` [Compound 42, 3-(7-(4-Fluorophenyl)-3H-imidazo[4,5-c]pyrid-2-yl)-5-(5-(pyrrolidin-1-ylmethyl)pyridin-3-yl)-1H-pyrazolo[4,3-b]pyridine], the results for the EC50 (in assay [1]; in the assay with SW480 colon cancer cells; in the assay on IL-6 in THP-1 cells) were 3.35 µM, 1.05 µM and above 10 µM, respectively. Further, the inhibition at 10 µM in the assay on IL-6 in THP-1 cells was found to be 42%.
With `Cc1ncc(-c2ccc3[nH]nc(-c4nc5c(-c6ccoc6)cncc5[nH]4)c3n2)n1C` [Compound 641, 5-(1,2-Dimethyl-1H-imidazol-5-yl)-3-(7-(furan-3-yl)-3H-imidazo[4,5-c]pyridin-2-yl)-1H-pyrazolo[4,3-b]pyridine], the EC50 in assay [1] was 0.911 µM; in the assay with SW480 colon cancer cells, 2.88 µM; in the assay with IL-6 in THP-1 cells, above 10 µM. The inhibition at 10 µM in the assay on IL-6 in THP-1 cells is 8.9%.
On to `COc1cncc(-c2ccc3[nH]nc(-c4nc5c(-c6cccc(F)c6)cncc5[nH]4)c3n2)c1` [Compound 488, 3-(7-(3-Fluorophenyl)-3H-imidazo[4,5-c]pyridin-2-yl)-5-(5-methoxylpyridin-3-yl)-1H-pyrazolo[4,3-b]pyridine], for which the EC50 is 0.024 µM in assay [1], above 10 µM in the assay on SW480 colon cancer cells and above 10 µM in the assay on IL-6 in THP-1 cells. Also, the figures for the inhibition at 10 µM with SW480 colon cancer cells and with IL-6 in THP-1 cells were 0% and 43%, respectively.
With `CC(C)(C)C(=O)Nc1cncc(-c2ccc3[nH]nc(-c4nc5c(-c6ccc(F)cc6)cncc5[nH]4)c3n2)c1` [Compound 36, N-(5-(3-(7-(4-Fluorophenyl)-3H-imidazo[4,5-c]pyridin-2-yl)-1H-pyrazolo[4,3-b]pyridin-5-yl)pyridin-3-yl)pivalamide], the EC50 in assay [1] was 2.73 µM; in the assay with SW480 colon cancer cells, 6.23 µM; in the assay with IL-6 in THP-1 cells it was above 10 µM. Besides, the inhibition at 10 µM with IL-6 in THP-1 cells amounted to 35.9%.
With `O=C(CC1CCNCC1)Nc1cncc(-c2ccc3[nH]nc(-c4nc5c(-c6ccccn6)cncc5[nH]4)c3n2)c1` [Compound 565, 2-(Piperidin-4-yl)-N-(5-(3-(7-(pyridin-2-yl)-3H-imidazo[4,5-c]pyridin-2-yl)-1H-pyrazolo[4,3-b]pyridin-5-yl)pyridin-3-yl)acetamide], the inhibition at 10 µM in assay [1] amounted to 44.2%; in the assay with SW480 colon cancer cells, 5.1%; with IL-6 in THP-1 cells, 34.7%. Further, the EC50 (in assay [1]; in the assay with SW480 colon cancer cells; in the assay with IL-6 in THP-1 cells) was above 10 µM each time.
With `CCCC(=O)Nc1cncc(-c2ccc3[nH]nc(-c4nc5c(-c6ccsc6)cncc5[nH]4)c3n2)c1` [Compound 269, N-(5-(3-(7-(Thiophen-3-yl)-3H-imidazo[4,5-c]pyridin-2-yl)-1H-pyrazolo[4,3-b]pyridin-5-yl)pyridin-3-yl)butyramide], the EC50 in assay [1] was 3.72 µM; in the assay on SW480 colon cancer cells, 3.44 µM; in the assay on IL-6 in THP-1 cells it was above 10 µM. Also, the inhibition at 10 µM in the assay on IL-6 in THP-1 cells amounted to 45.9%.
As to `O=C(CC1CCNCC1)Nc1cncc(-c2ccc3[nH]nc(-c4nc5c(-c6ccsc6)cncc5[nH]4)c3n2)c1` [Compound 629, 2-(Piperidin-4-yl)-N-(5-(3-(7-(thiophen-3-yl)-3H-imidazo[4,5-c]pyridin-2-yl)-1H-pyrazolo[4,3-b]pyridin-5-yl)pyridin-3-yl)acetamide], the values for the inhibition at 10 µM (in assay [1]; in the assay on SW480 colon cancer cells; with IL-6 in THP-1 cells) were 30.6%, 2.8% and 45.5%, respectively. Besides, the EC50 (in assay [1]; in the assay on SW480 colon cancer cells; in the assay with IL-6 in THP-1 cells) was above 10 µM in each case.
For `CN(C)c1cncc(-c2ccc3[nH]nc(-c4nc5c(N6CCCCC6)cncc5[nH]4)c3n2)c1` [Compound 175, N,N-dimethyl-5-(3-(7-(piperidin-1-yl)-3H-imidazo[4,5-c]pyridin-2-yl)-1H-pyrazolo[4,3-b]pyridin-5-yl)pyridin-3-amine], the half-maximal effective concentration (EC50) in assay [1] amounted to 3.97 µM; in the assay with SW480 colon cancer cells it was 3.84 µM; in the assay with IL-6 in THP-1 cells, 0.122 µM.
On to `Clc1ccc(-c2cncc3[nH]c(-c4n[nH]c5ccc(-c6cncc(CN7CCCC7)c6)nc45)nc23)s1` [Compound 1004, 3-(7-(5-Chlorothiophen-2-yl)-3H-imidazo[4,5-c]pyridin-2-yl)-5-(5-(pyrrolidin-1-ylmethyl)pyridin-3-yl)-1H-pyrazolo[4,3-b]pyridine], for which the concentration for a half-maximal effect (EC50) in assay [1] is 3.79 µM; with SW480 colon cancer cells it was 2.94 µM; with IL-6 in THP-1 cells it was above 10 µM. In addition, in the assay on IL-6 in THP-1 cells, the inhibition at 10 µM was found to be 29.8%.
Consider `CN(C)c1cncc(-c2ccc3[nH]nc(-c4nc5c(-c6cccs6)cncc5[nH]4)c3n2)c1` [Compound 315, N,N-Dimethyl-5-(3-(7-(thiophen-2-yl)-3H-imidazo[4,5-c]pyridin-2-yl)-1H-pyrazolo[4,3-b]pyridin-5-yl)pyridin-3-amine], for which the EC50 is 0.71 µM in assay [1], above 10 µM in the assay on SW480 colon cancer cells and 0.031 µM in the assay on IL-6 in THP-1 cells. In addition, the inhibition at 10 µM with SW480 colon cancer cells was 43.8%.
